Measured values: patent publication US9987286B2, “Compositions and methods for the treatment of addiction, psychiatric disorders, and neurodegenerative disease” (Embera NeuroTherapeutics, Inc., priority 2010, dated 2018)

Assays:
[1] = test system: nicotine self-administration in rats; experiment: Intravenous nicotine self-administration, fixed-ratio schedule (Example 3); assay type: in vivo, Wistar-derived male rats; settings: FR1-TO-20 s; varenicline 1 mg/kg subcutaneously; reduced from 15.4±1.0
Experimental: Wistar-derived male rats (250-300 g) were purchased from Harlan Laboratories (Livermore, Calif.), housed in groups of two, and maintained in a temperature-controlled environment on a 12 h:12 h light cycle. Before testing, animals were provided free access to food and water during a one-week habituation period, and were handled daily for several days to desensitize them to handling stress. Each rat included in the data analysis received all treatments in order to obtain reliable estimates of drug effects and decrease the impact of inter-animal variability.
Varenicline-HCl (Ontario Chemicals), at 1 mg/kg (expressed as free base), was used as a positive control and administered subcutaneously. Nicotine hydrogen tartrate (Sigma Aldrich) was dissolved in isotonic saline at 0.3 mg/mL (expressed as free base), adjusted to pH 7.0, and diluted to deliver 0.03 mg/kg/infusion. All test compounds were administered 30 minutes prior to nicotine self-administration sessions in a volume of 1 mL/kg.
Food training and nicotine self-administration took place in 8 standard COULBOURN® operant conditioning chambers. Each chamber was housed in a sound-attenuating chamber. Operant chambers were equipped with two levers mounted 2 cm above the floor and a cue light mounted 2 cm above the right lever (active lever) on the back wall of the chamber. […]

smoking cessation = settings: cited from earlier work
plasma CORT = experiment: Plasma CORT radioimmunoassay (Example 1); assay type: in vivo, Male Wistar rats; settings: rats before adrenalectomy; any of the doses
Excerpt: (§1) Blood was collected via the implanted catheters at the end of the behavioral test sessions for the measurement of plasma CORT and […] (ACTH). The samples were kept on ice until centrifuged in a refrigerated centrifuge and the plasma collected and frozen until assayed. Plasma CORT and ACTH (ng/ml) were subsequently determined by radioimmunoassay.

plasma corticosterone = experiment: Plasma corticosterone in rats (earlier experiments); assay type: in vivo, rat; settings: pretreatment with metyrapone
[2] = test system: cocaine self-administration in rats; experiment: Ongoing cocaine self-administration in rats (earlier experiments); assay type: in vivo, rat; settings: pretreatment with the single drug
Excerpt: We then reduced the dose by one-half until we found a dose of each drug that no longer affected cocaine self-administration or any other observable behaviors (i.e., an ineffective dose). When we then combined the ineffective doses of the two drugs, cocaine self-administration was reduced. […] Thus, we concluded that combining drugs that affect the HPA axis through different mechanisms can produce an additive effect on cocaine reward. Furthermore, by combining these drugs at concentrations that have no effect when the drugs are administered alone, we can minimize the potential toxic side effects (e.g., excessive decreases in plasma cortisol with metyrapone and the abuse liability of benzodiazepines) that may be associated with these compounds. Accordingly, the compositions of the present invention may include combinations of therapeutic agents, one or both of which are present at a dosage level lower than that which would be required to achieve an effect had the agent been administered alone; the dosages may be additive.

[3] = test system: cocaine self-administration in rats; experiment: Cocaine self-administration before and after adrenalectomy, alternating schedule of cocaine and food reinforcement (Example 1); assay type: in vivo, Male Wistar rats; settings: rats after bilateral adrenalectomy
Experimental: Male Wistar rats were housed in an AALAC-approved animal care facility and maintained at 85-90% of their free-feeding body weights. These rats were on a reversed 12-hour light, 12-hour dark cycle from the beginning of the experimental procedures.
A chronic indwelling jugular catheter (0.012 in i.d.×0.025 in o.d., silicone tubing) was implanted in each rat under pentobarbital anesthesia (50 mg/kg ip) with methyl atropine nitrate pretreatment (10 mg/kg ip). The animals were injected with sterile penicillin G procaine suspension (75,000 units, im) immediately before surgery and allowed 5-7 days to recover.
Animals were anesthetized with pentobarbital (50 mg/kg ip) with methyl atropine nitrate pretreatment (10 mg/kg ip). The adrenal glands were located through an incision and removed. The animals were injected with sterile penicillin G procaine suspension (75,000 units, im) and allowed to recover from surgery for 7 days. After ADX, the rats received drinking water containing 0.9% saline and 1.0% sucrose. Animals in the SHAM group received the same surgery except that the adrenal glands were not removed. They continued to receive tap water to drink.
Sound-attenuating operant conditioning chambers (Med-Associates, Inc.) were equipped with two response levers and a stimulus light located directly above each lever. A food pellet dispenser was located between the levers. […]

ACTH = experiment: Plasma ACTH radioimmunoassay (Example 1); assay type: in vivo, Male Wistar rats; settings: rats before adrenalectomy; any of the doses
Excerpt: as §1

[4] = test system: cocaine self-administration in rats; experiment: Cocaine self-administration in rats, metyrapol (Example 5); assay type: in vivo, Adult male Wistar rats; settings: metyrapol 25, 50, 100, 150 mg/kg ip 30 minutes before session; cocaine 0.125, 0.25 and 0.5 mg/kg/infusion
Experimental: (§2) We conducted the following experiment to explore the possibility that metyrapol would decrease cocaine self-administration in an animal model. Adult male Wistar rats were trained to respond under a 2-hour multiple, alternating schedule of food reinforcement and cocaine self-administration (fixed-ratio 4) during alternating 15-minute periods. Prior to testing, the rats were exposed to multiple saline substitution and food extinction probes. On test days, rats were pretreated 30 minutes prior to the start of the behavioral session with metyrapol (25, 50, 100, and 150 mg/kg, ip.) or vehicle. Subjects were initially trained and tested with 0.25 mg/kg/infusion of cocaine and, subsequently, with 0.125 and 0.5 mg/kg/infusion.

[5] = test system: food-maintained responding in rats; experiment: Food-maintained responding in rats, metyrapol (Example 5); assay type: in vivo, Adult male Wistar rats; settings: metyrapol 25, 50, 100, 150 mg/kg ip
Experimental: as §2

SMILES: c1cnc2cc3c(cc2n1)[C@@H]1CNC[C@H]3C1 [varenicline]
- nicotine infusions during the 1-hour self-administration session [1]: 7.7±1.2 infusions
- efficacy for smoking cessation compared to either bupropion or nicotine replacement therapy (smoking cessation; literature reports): increased efficacy
- quit rates after one year (smoking cessation; smoking cessation, Nides et al. 2006): 14%

SMILES: CC(C)(C(=O)c1cccnc1)c1cccnc1 [metyrapone]
- Corticosterone (plasma) (plasma CORT): not changed
- plasma corticosterone (plasma corticosterone): significant dose-related decreases
- ongoing cocaine self-administration [2]: significant dose-related decreases
- blocking cocaine self-administration following adrenalectomy compared to pre-adrenalectomy values [3]: as effective, and possibly even more effective
- ACTH (plasma) (ACTH): not changed

SMILES: CC(C)(c1cccnc1)C(O)c1cccnc1 (stereo not shown) [metyrapol]
- cocaine self-administration [4]: dose dependently decreased
- food-maintained responding [5]: not significantly affected except at the highest doses
